# Results taken from patent US20260256962A1, “PRODRUGS FOR COMPOUNDS SPECIFIC TO GRANZYME B AND USES THEREOF” (CYTOSITE BIOPHARMA INC., priority 2021, published 2026).
# Assays:
# [1] = In vivo conversion of [^18F] granzyme B prodrugs to active form, radioactive metabolite screening of blood by radio-HPLC; parameters: species or system male CD-1 mice; details: for 5 min (% active form in blood) / 15 min (% active form in blood): male CD-1 mice, tail vein injection, radio-HPLC; for 5 min (% active form in blood): blood 5 minutes post-injection; for 15 min (% active form in blood): blood 15 minutes post-injection; for conversion to the active form: in vivo, mouse plasma 5 minutes after administration (FIGS. 4C, 5C)
# Excerpt: In vivo conversion of prodrugs was monitored by radioactive metabolite screening studies performed by injection of [^18F] granzyme B tracers in male CD-1 mice followed by analysis of extracted blood samples by radiometric HPLC. Results are reported as percent active form present in blood (Table 11).
# Briefly, male CD-1 mice were anesthetized prior to dosing with approximately 250 μCi [^18F] granzyme B tracer via tail vein injection (n=3 mice/timepoint). For blood collection, mice were sacrificed following cardiac exsanguination with a syringe pre-rinsed with sodium heparin at 5 and 15 minutes post-injection and samples were prepared for analysis via radio-HPLC.
# Blood samples were centrifuged at 1500 RCF for 5 minutes to allow for separation of plasma. Plasma samples were mixed with two volumes of methanol, vortexed for 30 seconds, and then centrifuged at 1500 RCF for 2 minutes. The supernatant was separated from the pellet and diluted 1:4 with PBS buffer pH 7.4 or water prior to analysis by HPLC.
# Samples were then analyzed on an Agilent 1290 series UPLC UV coupled with a BGO coincidence detector. The HPLC method utilized 2) Phenomenex Monolithic C18 (100×4.6 mm); 100-200 μL injection volume; flow-rate: 1.2 mL/min; solvent for A: 20 mM ammonium acetate in water; solvent for B: 100% methanol; gradient: initial hold at 5% B hold for 1 min, 5% to 40% in 7 min, hold 40% B for 2 min, increase from 40% to 95% B in 1 min, hold 95% B for 2 min, and then return to 5% B to reequilibrate.
# granzyme B = molecular target: T1, granzyme B (Homo sapiens, UniProt P10144); experiment: In vivo PET/CT imaging of ^18F-granzyme B tracers in Matrigel mouse model of active and pro-form granzyme B; parameters: species or system female nude athymic mice; details: nude athymic mice, i.v. radiotracer, static PET 75 minutes post-injection
# T1 construct: In Vivo Imaging of ^18F-Granzyme B Tracers in a Matrigel Mouse Model of Active and Pro-Form Granzyme B; purchased Enzo Life Sciences; host or cells: purified from human lymphocytes
# Experimental: Female nude athymic (5-6 weeks, 15-30 g) mice were purchased from Jackson Laboratories. Both granzyme B (Human lymphocytes, Enzo Life Sciences) and inactivated human pro-form granzyme B (R&D Systems) were also commercially purchased. […] Each granzyme B enzyme were then brought up to a final concentration of 0.05 μg/ul using phosphate buffered saline (GE, Hyclone). Matrigel (65 μl, Corning) was mixed with 15 μl of 0.75 μg of each granzyme B enzyme (granzyme B and pro-form granzyme B) within each Eppendorf tube. The mice were then anesthetized with 2.5-3% isoflurane mixed with oxygen. Approximately 60-80 μl of granzyme B/Matrigel or the pro-form granzyme B/Matrigel were then injected using a 28-gauge×0.5-inch insulin syringe (Terumo) to form implants on the right and left shoulder flanks of the mice. […] After the radiotracer injection, the catheter was removed and measured for any remaining residual radioactivity. […] PET signal in the granzyme B implants were quantified by manually drawing regions of interest (ROIs) over the Matrigel implants based on the fused PET/CT images and the corresponding activity values were determined with VivoQuant (Invicro, Massachusetts). […] Target to background ratios (TBR's) were then calculated by dividing the granzyme B % ID/g value by the pro-form granzyme B % ID/g value.
# T1 sequence (P10144 21-247): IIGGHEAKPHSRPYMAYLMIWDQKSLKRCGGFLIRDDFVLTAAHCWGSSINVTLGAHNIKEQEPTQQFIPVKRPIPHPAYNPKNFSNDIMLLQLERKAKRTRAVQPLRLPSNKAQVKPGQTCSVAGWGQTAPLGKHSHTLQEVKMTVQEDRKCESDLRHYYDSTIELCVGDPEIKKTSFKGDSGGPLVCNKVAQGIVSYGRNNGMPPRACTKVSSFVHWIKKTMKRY
Structure (SMILES),5 min (% active form in blood) [1] [%],15 min (% active form in blood) [1] [%],conversion to the active form [1],differentiation in Matrigel (granzyme B vs pro-form granzyme B implants) (granzyme B)
CCO[C@@H]1OC(=O)C[C@@H]1NC(=O)[C@@H]1Cc2cccc3c2N1C(=O)[C@@H](NC(=O)[C@@H](NC(=O)COCCNC(=O)[C@@H](CCC(=O)O)NC(=O)[C@@H](CCC(=O)O)NC(=O)CN1CCC(CN2CCN4CCN(CC2)CC(=O)[O][Al]([F])[O]C(=O)C4)CC1)[C@@H](C)CC)CC3 [[^18F] 8-Al],86,100,–,–
CC[C@H](C)[C@H](NC(=O)COCCNC(=O)[C@@H](CCC(=O)O)NC(=O)[C@@H](CCC(=O)O)NC(=O)CN1CCC(CN2CCN3CCN(CC2)CC(=O)[O][Al]([F])[O]C(=O)C3)CC1)C(=O)N[C@H]1CCc2cccc3c2N(C1=O)[C@H](C(=O)N[C@H]1CC(=O)O[C@H]1OC)C3 [[^18F] 7-Al],69,78,–,–
CC[C@H](C)[C@H](NC(=O)CCNC(=O)CCNC(=O)CN(CC(=O)O)C(=O)CN1CCC(CN2CCN3CCN(CC2)CC(=O)[O][Al]([F])[O]C(=O)C3)CC1)C(=O)N[C@H]1CCc2cccc3c2N(C1=O)[C@H](C(=O)N[C@H]1CC(=O)O[C@H]1OC)C3 [[^18F] 9-Al],90,100,–,–
CCO[C@@H]1OC(=O)C[C@@H]1NC(=O)[C@@H]1Cc2cccc3c2N1C(=O)[C@@H](NC(=O)[C@@H](NC(=O)CCNC(=O)CCNC(=O)[C@@H](CCC(=O)O)NC(=O)CN1CCC(CN2CCN4CCN(CC2)CC(=O)[O][Al]([F])[O]C(=O)C4)CC1)[C@@H](C)CC)CC3 [[^18F] 5-Al],98,100,–,–
CC[C@H](C)[C@H](NC(=O)CCNC(=O)CCNC(=O)[C@@H](CCC(=O)O)NC(=O)CN1CCC(CN2CCN3CCN(CC2)CC(=O)[O][Al]([F])[O]C(=O)C3)CC1)C(=O)N[C@H]1CCc2cccc3c2N(C1=O)[C@H](C(=O)N[C@H]1CC(=O)O[C@H]1OC)C3 [[^18F] 4-Al],92,94,rapid conversion to the active form,good differentiation in Matrigel
CC[C@H](C)[C@H](NC(=O)CCNC(=O)CCNC(=O)[C@@H](CCC(=O)O)NC(=O)CN1CCC(CN2CCN3CCN(CC2)CC(=O)[O][Al]([F])[O]C(=O)C3)CC1)C(=O)N[C@H]1CCc2cccc3c2N(C1=O)[C@H](C(=O)N[C@H]1CC(=O)O[C@@H]1OC)C3 [[^18F] 3-Al],13,17,slow conversion to the active form,poor differentiation in Matrigel
CC[C@H](C)[C@H](NC(=O)COCCNC(=O)[C@@H](CCC(=O)O)NC(=O)[C@@H](CCC(=O)O)NC(=O)CN1CCC(CN2CCN3CCN(CC2)CC(=O)[O][Al]([F])[O]C(=O)C3)CC1)C(=O)N[C@H]1CCc2cccc3c2N(C1=O)[C@H](C(=O)N[C@H]1CC(=O)O[C@@H]1OC)C3 [[^18F] 6-Al],11,16,–,–
